8 substances from publication PMC11118832 (Biomolecules, 2024) can be followed below.

pEC50, pIC50: −log10 of the molar value. Ends that are not written are not given here.

The target in data set [1] is T1, PD-1/PD-L1 (Homo sapiens, UniProt Q15116).
T1 construct: this kit uses ectodomains of PD-1 and PD-L1 that are expressed with orthogonal fusion tags (Tag-1 and Tag-2); purchased CisBio (currently Perkin-Elmer, Bedford, MA)
The data set is described as follows: In vitro time-resolved FRET PD-1/PD-L1 binding assay (CisBio kit). The settings on record: CisBio PD-1/PD-L1 binding kit, TR FRET, 96-well; for pEC50: serial dilutions in triplicate, NI = no inhibition at maximum concentration tested (* 5 μM, ** 50 μM), read-out: EC50 (Supplementary Table S1; inhibition of PD-1/PD-L1 binding by in vitro TR-FRET assay). Put shortly: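 Tagged PD-1 and PD-L1 ectodomains were detected with donor- and acceptor-labeled anti-tag antibodies; complex formation gives a time-resolved FRET signal. Freshly dissolved peptides were tested in triplicate 4-fold serial dilutions, with no-peptide and no-protein wells as controls. IC50 is the concentration reducing TR-FRET by 50%.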

For data set [2] the following is noted: pH 6.4.
Method: We ran chemical shift mapping (CSM) experiments for four peptides, B5.11, B3.15, B5.6, and B2.22. […] CSM ^15N-HSQC experiments with unlabeled peptides (B5.11, B3.15, and B5.6) were performed on uniformly ^15N-labeled PD-1 in a buffer (two series, pH 6.4 and 6.7) containing 25 mM NaPO4, 100 mM NaCl, 1 mM DSS, 10% D2O, and 3% dDMSO (necessary to make peptides stocks). Spectra were recorded at 25 °C on a Varian INOVA 600 MHz spectrometer equipped with an inverse triple-resonance cold probe. Spectra were processed using NMRPipe (11.2 rev 2022.346.12.26) [35] and analyzed with CCPN Analysis [36] made available through NMRBox. Assignments for PD-1 were adopted from BMRB-18908. The chemical shift perturbations were calculated using the following equation [37]: Δδ=0.5(δ^2H+(αδN)^2) where the scaling factor, α, was set to 0.15.

In the case of Ac-LVIVGAAWDYKY-NH2 [B2.22], in data set [1] (4-fold serial dilutions in triplicate, freshly dissolved peptides, read-out: IC50, inhibition of PD-1/PD-L1 binding (TR FRET assay)), the pIC50 was 6.15. Moreover, the negative logarithm of the EC50 (pEC50) in data set [1] was 6.15. In data set [2], the “Solubility / precipitation in NMR buffer” value was “too hydrophobic and precipitated totally out of the solution”.

Turning to Ac-WVWVGAAWDYKY-NH2 [B3.8], the pEC50 in data set [1] is under 4.30.

For Ac-YVLVIVGAAWDKKY-NH2 [B2.26], in data set [1], the negative logarithm of the EC50 (pEC50) was 4.66.

In the case of DVIVGAAWDYKY [B5.14], the negative-log EC50 (pEC50) in data set [1] was under 5.30.

With IVGAAWDYKY [B3.12], the negative logarithm of the EC50 (pEC50) in data set [1] was under 4.30.

KRVLVIVGAAWDYKYE [B2.35]: in data set [1], the pEC50 was 5.00.

On to LVIVGAAWDYKY [B3.11], for which the pEC50 in data set [1] is 4.85.

In the case of RVLVIVGAAWDYKY [B2.28], in data set [1], the pEC50 is 4.96.
